Test results as given in ChEMBL document CHEMBL1201862, “PubChem BioAssay data set” (2004).
The source made the active and inactive calls.

What was measured:
[1] = molecular target: T1, RNA-binding protein pos-1 (Caenorhabditis elegans, UniProt G5EF15); test: inhibitors of POS-1/mex-3 RNA binding, dose response, biochemical, fluorescence polarization (AID 1964);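 note: purified POS-1 fused to maltose binding protein made in E. coli; potency of compounds blocking POS-1 binding to fluorescent RNA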
T1 sequence (G5EF15 whole entry): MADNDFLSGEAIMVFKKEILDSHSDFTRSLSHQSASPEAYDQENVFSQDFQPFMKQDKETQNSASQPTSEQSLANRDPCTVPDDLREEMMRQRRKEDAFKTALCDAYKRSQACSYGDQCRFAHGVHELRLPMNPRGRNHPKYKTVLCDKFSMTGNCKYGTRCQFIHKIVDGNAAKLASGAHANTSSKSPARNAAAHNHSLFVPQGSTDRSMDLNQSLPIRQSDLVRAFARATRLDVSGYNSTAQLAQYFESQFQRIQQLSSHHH

[2] = molecular target: T2, Zinc finger protein mex-5 (Caenorhabditis elegans, UniProt Q9XUB2); test: MEX-5/TCR-2 RNA interaction inhibitors, dose response, biochemical, C. elegans, fluorescence polarization (AID 1960)
T2 sequence (Q9XUB2 whole entry): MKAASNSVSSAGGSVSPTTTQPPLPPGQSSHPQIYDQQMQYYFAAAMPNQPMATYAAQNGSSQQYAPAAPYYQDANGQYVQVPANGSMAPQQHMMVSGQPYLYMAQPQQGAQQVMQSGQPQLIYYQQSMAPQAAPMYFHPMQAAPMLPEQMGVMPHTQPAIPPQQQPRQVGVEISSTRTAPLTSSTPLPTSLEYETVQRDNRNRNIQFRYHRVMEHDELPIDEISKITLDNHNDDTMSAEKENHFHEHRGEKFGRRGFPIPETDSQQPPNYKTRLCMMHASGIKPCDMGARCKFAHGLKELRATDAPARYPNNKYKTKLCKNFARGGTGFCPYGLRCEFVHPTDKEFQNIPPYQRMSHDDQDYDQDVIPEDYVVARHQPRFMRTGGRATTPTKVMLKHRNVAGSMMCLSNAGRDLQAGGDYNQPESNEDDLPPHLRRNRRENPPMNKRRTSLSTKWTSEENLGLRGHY

[3] = Escherichia coli growth inhibition, dose response, counter-screen for MEX-5/POS-1 RNA-binding inhibitor project, luminescence, NEB5alpha (AID 1959); assay type: functional
Large T antigen = Large T antigen (Simian virus 40, UniProt P03070); assay type: functional, Betapolyomavirus macacae;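 note: Confirmatory-stage PubChem screen for compounds that inhibit SV40 T antigen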
[4] = molecular target: Luciferin 4-monooxygenase (Photinus pyralis, UniProt P08659); test: firefly luciferase enzyme inhibitors, dose response, biochemical, luminescence (AID 1891)
[5] = Luminescence Cell-Based Dose Confirmation HTS to Identify Inhibitors of Platelet Dense Granule Release. [Related pubchem assays: 1663 (Primary HTS), 1678 (Summary of Project)]; assay type: functional
[6] = molecular target: T3, Histone-lysine N-methyltransferase NSD2 (Homo sapiens, UniProt O96028); assay type: biochemical
T3 sequence (O96028 whole entry): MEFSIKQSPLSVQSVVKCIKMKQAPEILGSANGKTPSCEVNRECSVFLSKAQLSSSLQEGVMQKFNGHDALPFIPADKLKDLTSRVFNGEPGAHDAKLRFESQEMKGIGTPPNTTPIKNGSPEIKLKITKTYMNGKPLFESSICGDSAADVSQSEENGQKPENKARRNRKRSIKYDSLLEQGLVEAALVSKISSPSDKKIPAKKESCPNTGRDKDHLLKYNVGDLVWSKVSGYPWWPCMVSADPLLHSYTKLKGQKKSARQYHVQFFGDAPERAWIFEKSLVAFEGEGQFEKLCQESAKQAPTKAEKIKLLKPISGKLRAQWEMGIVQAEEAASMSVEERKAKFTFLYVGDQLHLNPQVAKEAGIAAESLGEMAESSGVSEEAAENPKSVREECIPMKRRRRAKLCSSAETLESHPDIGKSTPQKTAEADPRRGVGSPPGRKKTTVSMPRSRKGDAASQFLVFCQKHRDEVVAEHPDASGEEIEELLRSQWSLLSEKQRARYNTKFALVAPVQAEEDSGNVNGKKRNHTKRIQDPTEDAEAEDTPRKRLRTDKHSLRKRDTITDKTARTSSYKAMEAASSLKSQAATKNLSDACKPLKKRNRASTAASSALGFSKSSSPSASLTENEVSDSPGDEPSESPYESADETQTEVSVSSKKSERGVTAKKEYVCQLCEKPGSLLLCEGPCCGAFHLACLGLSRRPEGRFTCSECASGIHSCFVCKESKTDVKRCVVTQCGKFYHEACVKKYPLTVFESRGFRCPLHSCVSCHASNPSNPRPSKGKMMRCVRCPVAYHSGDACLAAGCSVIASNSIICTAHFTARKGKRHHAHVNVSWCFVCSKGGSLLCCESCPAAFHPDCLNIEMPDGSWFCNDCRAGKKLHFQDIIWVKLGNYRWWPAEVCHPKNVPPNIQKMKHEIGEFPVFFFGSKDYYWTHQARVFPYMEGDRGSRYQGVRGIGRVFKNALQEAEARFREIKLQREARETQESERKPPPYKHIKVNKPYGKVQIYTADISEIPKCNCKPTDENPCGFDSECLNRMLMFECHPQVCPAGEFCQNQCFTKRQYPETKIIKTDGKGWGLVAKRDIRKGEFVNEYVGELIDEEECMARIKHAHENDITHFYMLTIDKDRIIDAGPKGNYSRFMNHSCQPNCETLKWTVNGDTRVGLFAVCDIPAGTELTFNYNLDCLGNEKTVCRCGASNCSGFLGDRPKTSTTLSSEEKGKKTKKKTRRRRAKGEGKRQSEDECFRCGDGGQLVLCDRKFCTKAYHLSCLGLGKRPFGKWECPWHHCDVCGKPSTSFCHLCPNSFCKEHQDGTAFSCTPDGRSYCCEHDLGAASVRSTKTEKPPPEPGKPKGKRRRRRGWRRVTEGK

[7] = molecular target: Glyceraldehyde-3-phosphate dehydrogenase (Homo sapiens, UniProt P04406)
Bcl-2-related protein A1 [8] = molecular target: T4, Bcl-2-related protein A1 (Mus musculus, UniProt Q07440); test: Bfl-1 inhibitors blocking BH3 peptide binding, confirmation, biochemical, TR-FRET, mouse Bfl-1 (AID 621);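 note: TR-FRET binding of GST-Bfl-1 to FITC-labelled Bid peptide via terbium antibody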
T4 sequence (Q07440 whole entry): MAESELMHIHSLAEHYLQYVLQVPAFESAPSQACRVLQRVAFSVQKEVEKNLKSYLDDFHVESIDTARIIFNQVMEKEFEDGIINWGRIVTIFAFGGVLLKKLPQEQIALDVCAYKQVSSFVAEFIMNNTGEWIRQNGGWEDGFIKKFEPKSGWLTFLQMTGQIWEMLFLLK

Bcl-2-related protein A1 [9] = molecular target: T4, Bcl-2-related protein A1; test: Bfl-1 binding inhibitors, SAR follow-up, biochemical, fluorescence polarization (AID 1070)
Leucine aminopeptidase = molecular target: T5, Leucine aminopeptidase (Plasmodium falciparum 3D7, UniProt Q8IL11); test: P. falciparum M17LAP inhibitors, primary screen, biochemical, fluorogenic H-Leu-NHMec substrate, 1536-well (AID 1619); assay type: functional
T5 sequence (Q8IL11 whole entry): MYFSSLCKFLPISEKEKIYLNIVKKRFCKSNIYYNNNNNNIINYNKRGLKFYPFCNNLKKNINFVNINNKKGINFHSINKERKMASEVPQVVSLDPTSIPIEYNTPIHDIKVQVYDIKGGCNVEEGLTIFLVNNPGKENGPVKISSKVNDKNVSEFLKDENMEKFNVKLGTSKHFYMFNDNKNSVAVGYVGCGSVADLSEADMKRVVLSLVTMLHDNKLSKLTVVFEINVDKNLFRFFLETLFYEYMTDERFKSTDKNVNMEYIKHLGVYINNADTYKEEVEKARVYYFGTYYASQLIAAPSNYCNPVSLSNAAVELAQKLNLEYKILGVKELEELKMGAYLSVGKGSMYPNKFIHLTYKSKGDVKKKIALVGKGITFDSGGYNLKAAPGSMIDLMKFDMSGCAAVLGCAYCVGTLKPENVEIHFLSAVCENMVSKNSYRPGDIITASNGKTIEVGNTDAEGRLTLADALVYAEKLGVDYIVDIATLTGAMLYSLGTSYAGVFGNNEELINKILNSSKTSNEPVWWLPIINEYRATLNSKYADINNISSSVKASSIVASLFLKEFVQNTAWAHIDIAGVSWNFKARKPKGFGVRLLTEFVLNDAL

Aspartyl aminopeptidase = Aspartyl aminopeptidase (Plasmodium falciparum 3D7, UniProt Q8I2J3); test: Counterscreen for inhibitors of M1 and M17 aminopeptidases: QFRET-based biochemical high throughput dose response assay for inhibitors of the Plasmodium falciparum M18 Aspartyl Aminopeptidase (PFM18AAP). [Related PubChem assays: 1619 (Screening assay (M17LAP inhibitors).), 1445 (Screening assay (M1AAP inhibitors).)]
Procathepsin L = Procathepsin L (Homo sapiens, UniProt P07711); test: cathepsin L inhibitors, dose response, counter-screen for M1/M17 aminopeptidase inhibitor project, biochemical, QFRET, 1536-well (AID 2214)
[10] = molecular target: Serine/threonine-protein phosphatase PP1-alpha catalytic subunit (Homo sapiens, UniProt P62136); test: PP1 phosphatase inhibitors, dose response, biochemical, fluorescence (AID 2394)
[11] = growth suppression of PTEN-null colon cells, dose response, cell-based, HCT116 PTEN knockout (AID 1047); assay type: functional;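 note: HCT116 colon tumor cells with PTEN knocked out; cells exposed to compound for 60 hours before readout; potency for loss of cell viability measured by luminescence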
[12] = molecular target: Serine/threonine-protein phosphatase (Homo sapiens, UniProt Q9BPW0); test: PP5 phosphatase inhibitors, dose response, biochemical, fluorescence (AID 2395)
[13] = growth suppression of beta-catenin-knockout colon cells, dose response, cell-based, HCT116, human colon tumor (AID 1045); assay type: functional;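 note: HCT116 colon tumor cells with beta catenin knocked out; cells exposed to compound for 60 hours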
[14] = molecular target: Sphingosine 1-phosphate receptor 2 (Homo sapiens, UniProt O95136); test: Dose Response Cell Based Assay for Agonists of the S1P2 Receptor. [Related pubchem assays: 729, 736, 843 ]; assay type: functional
Protein RecA = molecular target: T6, Protein RecA (Mycobacterium tuberculosis, UniProt P9WHJ3); test: Fluorescence Cell-Free Homogeneous Dose Retest to Identify Inhibitors of RecA-Intein Splicing Activity. [Related pubchem assays (depositor defined):AID2097, AID2223, AID489010, AID492950]; assay type: functional
T6 sequence (P9WHJ3 whole entry): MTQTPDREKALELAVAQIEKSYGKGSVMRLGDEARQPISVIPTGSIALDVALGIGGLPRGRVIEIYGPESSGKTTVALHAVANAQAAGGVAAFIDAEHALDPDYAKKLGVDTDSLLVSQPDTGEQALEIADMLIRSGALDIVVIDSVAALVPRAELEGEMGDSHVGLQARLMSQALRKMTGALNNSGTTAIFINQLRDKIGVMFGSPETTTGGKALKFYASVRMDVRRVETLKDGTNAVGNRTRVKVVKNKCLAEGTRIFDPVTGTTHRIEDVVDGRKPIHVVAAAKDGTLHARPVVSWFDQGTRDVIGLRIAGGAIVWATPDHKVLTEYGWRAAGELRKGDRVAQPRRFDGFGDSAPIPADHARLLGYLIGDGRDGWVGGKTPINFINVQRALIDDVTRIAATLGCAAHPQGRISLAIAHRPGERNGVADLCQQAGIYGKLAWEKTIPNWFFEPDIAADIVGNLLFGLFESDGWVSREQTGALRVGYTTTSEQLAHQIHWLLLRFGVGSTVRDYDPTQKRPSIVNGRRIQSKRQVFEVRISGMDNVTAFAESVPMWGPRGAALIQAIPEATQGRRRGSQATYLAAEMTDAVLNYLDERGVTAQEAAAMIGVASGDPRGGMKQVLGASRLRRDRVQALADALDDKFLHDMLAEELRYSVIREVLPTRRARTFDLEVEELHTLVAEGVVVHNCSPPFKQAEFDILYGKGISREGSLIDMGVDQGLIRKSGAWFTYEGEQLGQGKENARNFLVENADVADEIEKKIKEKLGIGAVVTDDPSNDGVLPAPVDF

Large T antigen, sequence (P03070 whole entry): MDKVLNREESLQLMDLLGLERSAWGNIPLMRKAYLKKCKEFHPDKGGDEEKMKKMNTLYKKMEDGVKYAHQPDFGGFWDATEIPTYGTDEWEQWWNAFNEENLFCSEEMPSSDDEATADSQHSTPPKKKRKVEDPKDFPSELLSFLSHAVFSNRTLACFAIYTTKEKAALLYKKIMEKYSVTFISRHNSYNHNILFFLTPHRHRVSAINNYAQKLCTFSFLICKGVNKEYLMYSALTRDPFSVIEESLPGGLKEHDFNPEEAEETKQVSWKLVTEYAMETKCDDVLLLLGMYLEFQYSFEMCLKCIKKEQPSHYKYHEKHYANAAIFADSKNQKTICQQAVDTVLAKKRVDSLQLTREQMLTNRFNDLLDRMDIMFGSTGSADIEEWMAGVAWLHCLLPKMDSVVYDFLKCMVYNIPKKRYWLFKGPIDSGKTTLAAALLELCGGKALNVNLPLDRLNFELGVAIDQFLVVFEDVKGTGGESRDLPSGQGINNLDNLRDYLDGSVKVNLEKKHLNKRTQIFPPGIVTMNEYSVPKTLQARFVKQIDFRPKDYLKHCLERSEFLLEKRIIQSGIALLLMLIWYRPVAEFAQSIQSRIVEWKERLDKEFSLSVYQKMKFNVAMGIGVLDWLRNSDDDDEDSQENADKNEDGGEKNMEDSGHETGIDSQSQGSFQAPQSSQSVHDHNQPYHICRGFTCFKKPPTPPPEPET
Sphingosine 1-phosphate receptor 2, sequence (O95136 whole entry): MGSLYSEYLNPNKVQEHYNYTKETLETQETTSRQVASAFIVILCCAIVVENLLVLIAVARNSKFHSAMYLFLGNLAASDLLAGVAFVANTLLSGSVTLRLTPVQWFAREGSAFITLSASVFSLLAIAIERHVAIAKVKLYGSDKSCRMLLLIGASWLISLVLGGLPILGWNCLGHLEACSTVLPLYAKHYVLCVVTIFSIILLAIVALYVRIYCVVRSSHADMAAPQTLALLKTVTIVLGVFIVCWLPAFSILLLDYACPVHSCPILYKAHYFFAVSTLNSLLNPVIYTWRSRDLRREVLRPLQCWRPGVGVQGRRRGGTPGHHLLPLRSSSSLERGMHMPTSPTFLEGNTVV
Luciferin 4-monooxygenase, sequence (P08659 whole entry): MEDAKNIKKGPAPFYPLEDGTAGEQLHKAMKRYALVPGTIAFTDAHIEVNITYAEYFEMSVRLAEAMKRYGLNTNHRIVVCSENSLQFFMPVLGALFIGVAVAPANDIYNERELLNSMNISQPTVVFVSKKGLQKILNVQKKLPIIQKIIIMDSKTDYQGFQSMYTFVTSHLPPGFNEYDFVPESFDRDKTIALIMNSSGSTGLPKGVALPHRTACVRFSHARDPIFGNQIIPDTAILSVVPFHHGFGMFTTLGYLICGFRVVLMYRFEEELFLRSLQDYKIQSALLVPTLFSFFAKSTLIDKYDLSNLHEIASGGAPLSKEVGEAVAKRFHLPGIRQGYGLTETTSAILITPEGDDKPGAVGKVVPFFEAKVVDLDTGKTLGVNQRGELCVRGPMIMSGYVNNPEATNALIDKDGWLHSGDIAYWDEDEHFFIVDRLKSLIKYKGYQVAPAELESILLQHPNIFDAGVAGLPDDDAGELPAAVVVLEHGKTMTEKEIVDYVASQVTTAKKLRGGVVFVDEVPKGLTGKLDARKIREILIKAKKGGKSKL
Aspartyl aminopeptidase, sequence (Q8I2J3 whole entry): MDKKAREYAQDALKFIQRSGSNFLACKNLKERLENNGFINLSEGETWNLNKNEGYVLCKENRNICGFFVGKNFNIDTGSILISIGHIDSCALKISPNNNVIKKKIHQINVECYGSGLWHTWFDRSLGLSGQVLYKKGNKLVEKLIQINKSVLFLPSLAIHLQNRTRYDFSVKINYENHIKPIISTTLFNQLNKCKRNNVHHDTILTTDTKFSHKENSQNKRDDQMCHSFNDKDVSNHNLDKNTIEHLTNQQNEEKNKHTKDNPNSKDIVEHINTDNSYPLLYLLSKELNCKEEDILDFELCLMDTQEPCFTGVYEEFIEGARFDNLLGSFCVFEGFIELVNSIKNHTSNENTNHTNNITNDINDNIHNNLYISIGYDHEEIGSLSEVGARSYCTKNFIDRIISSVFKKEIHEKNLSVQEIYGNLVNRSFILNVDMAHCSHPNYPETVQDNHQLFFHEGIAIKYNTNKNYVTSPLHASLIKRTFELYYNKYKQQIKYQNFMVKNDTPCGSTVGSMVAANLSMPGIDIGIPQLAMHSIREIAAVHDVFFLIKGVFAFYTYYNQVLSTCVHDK
Procathepsin L, sequence (P07711 whole entry): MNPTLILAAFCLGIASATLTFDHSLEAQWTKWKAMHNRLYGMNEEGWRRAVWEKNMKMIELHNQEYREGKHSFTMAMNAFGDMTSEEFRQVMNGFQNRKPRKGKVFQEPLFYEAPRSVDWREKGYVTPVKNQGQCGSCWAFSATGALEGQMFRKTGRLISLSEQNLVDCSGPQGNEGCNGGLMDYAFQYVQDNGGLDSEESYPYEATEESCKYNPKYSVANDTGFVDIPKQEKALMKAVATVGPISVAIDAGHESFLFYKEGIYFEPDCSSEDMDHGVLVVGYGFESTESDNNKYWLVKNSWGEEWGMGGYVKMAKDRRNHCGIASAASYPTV
Serine/threonine-protein phosphatase, sequence (Q9BPW0 whole entry): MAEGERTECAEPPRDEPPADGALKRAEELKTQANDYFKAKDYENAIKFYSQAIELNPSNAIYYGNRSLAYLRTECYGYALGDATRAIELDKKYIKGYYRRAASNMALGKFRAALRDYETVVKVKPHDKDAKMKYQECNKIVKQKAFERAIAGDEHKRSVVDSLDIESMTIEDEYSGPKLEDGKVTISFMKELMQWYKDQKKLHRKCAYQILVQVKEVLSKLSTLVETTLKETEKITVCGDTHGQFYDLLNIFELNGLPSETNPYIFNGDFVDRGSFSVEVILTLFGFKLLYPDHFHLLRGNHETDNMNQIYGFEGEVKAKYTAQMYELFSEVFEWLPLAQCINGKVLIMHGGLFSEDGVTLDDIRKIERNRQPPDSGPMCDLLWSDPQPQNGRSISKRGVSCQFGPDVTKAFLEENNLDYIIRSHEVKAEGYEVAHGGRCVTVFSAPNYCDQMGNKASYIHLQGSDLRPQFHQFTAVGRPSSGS
Glyceraldehyde-3-phosphate dehydrogenase, sequence (P04406 whole entry): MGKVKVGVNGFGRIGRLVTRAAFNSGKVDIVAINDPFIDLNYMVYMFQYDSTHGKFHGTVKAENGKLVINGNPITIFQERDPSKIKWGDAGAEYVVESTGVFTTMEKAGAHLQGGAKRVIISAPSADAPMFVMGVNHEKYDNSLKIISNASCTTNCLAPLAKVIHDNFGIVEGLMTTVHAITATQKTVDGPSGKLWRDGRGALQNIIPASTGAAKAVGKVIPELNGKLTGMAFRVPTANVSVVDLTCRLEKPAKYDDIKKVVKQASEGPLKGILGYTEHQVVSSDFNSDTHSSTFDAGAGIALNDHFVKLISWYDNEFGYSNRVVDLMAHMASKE
Serine/threonine-protein phosphatase PP1-alpha catalytic subunit, sequence (P62136 whole entry): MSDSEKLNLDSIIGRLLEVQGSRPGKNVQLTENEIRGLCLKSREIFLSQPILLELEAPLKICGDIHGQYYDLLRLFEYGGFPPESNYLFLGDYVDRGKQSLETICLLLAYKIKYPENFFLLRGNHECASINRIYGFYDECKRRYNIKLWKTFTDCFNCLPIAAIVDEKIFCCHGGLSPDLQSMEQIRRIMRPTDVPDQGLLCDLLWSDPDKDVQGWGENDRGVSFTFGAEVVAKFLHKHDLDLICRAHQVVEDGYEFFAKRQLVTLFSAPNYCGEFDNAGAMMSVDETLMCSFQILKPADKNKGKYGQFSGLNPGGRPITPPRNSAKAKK

## O=C(/C=C/c1ccc(O)c(O)c1)c1ccccc1O
[1]
  EC50: > 300 µM (not active)
[2]
  EC50: 42.3 µM (active)
[3]
  EC50: 19.5 µM (active)
Large T antigen
  IC50: 17.4 µM (active)
[4]
  EC50: 0.437 µM (active)
[5]
  EC50: 2.23 µM (active)
[6]
  AC50: > 20 µM (inactive)

## CC1C(=O)NCCN1C1=C(Cl)C(=O)N(c2ccc(Cl)c(Cl)c2)C1=O (centres undefined)
[7]
  IC50: > 50 µM (inconclusive)
Bcl-2-related protein A1 [8]
  IC50: 2.03 µM (active)
Bcl-2-related protein A1 [9]
  IC50: 5.63 µM (active)

## Cc1ccc(Nc2nnc(SCc3cc(=O)n4ccsc4n3)s2)c(C)c1
Leucine aminopeptidase
  IC50: 6.49 µM (active)
Aspartyl aminopeptidase
  IC50: > 73.5 µM (not active)
Procathepsin L
  IC50: > 59.6 µM (not active)

## CC(C)CNC(=O)c1c(N)n(Cc2ccc3c(c2)OCO3)c2nc3ccccc3nc12
[10]
  IC50: > 67 µM (not active)
[11]
  EC50: 11.9 µM (active)
[12]
  IC50: 17.9 µM (not active)
[13]
  EC50: 16.3 µM (active)
[14]
  EC50: 2.61 µM (active)
Protein RecA
  EC50: > 380 µM (inconclusive)
